Data reported in US10894817B2, “Fatty acid modified urocortin-2 analogs for the treatment of diabetes and chronic kidney disease” (priority 2016, dated 2021).
Read-outs that look alike come from different tables or passages of the source. Starred links: 1 amine or outer side, 2 acyl side, 3 side chain; linkers in the order of their positions; H or OH if unused. Non-standard residues stand in square brackets, D forms with d. Residues, ends and D or L forms follow the SMILES beside them. Groups on a side chain read outwards from the residue. *: point of attachment. C20 diacid = O=C(O)CCCCCCCCCCCCCCCCCCC(=O)*; C18 diacid = O=C(O)CCCCCCCCCCCCCCCCC(=O)*; γGlu = O=C(O)[C@H](CCC(=O)[*:2])N[*:1]; NMeI = CC[C@H](C)[C@H](NC)C(=O)O; AEEA = NCCOCCOCC(=O)O

Assays:
[1] = rat, in vivo, sc, 150 nmol/kg
Experimental: (§1) Plasma concentrations of compounds were determined by LC/MS methods. Each method measured the intact compound; peptide plus linked time extension. For each assay, the compound and an analog, used as an internal standard (IS), were extracted from 100% mouse, rat or monkey plasma (25 μl) using acetonitrile. Two distinct layers were formed upon centrifugation with the compound and the IS located in the supernatant layer. An aliquot of the supernatant (80 μl) was transferred to a Thermo Protein Precipitation Plate with water (150 μl) and formic acid (25 μl) followed by mixing. A final 31% acetonitrile in 10% formic acid sample (10 μl) was loaded onto a Supelco Analytical Discovery BIO Wide Pore C5-3 column (5 cm×1 mm, 3 μm). The column effluent was directed into a Thermo Q-Exactive mass spectrometer for detection and quantitation.
(§2) Male Sprague Dawley rats were administered a single subcutaneous dose (50 or 150 nmol/kg) of a compound described herein in 20 mM Tris-HCl Tris Buffer (pH 8) at a volume of 0.26 or 0.77 mL/kg.

remnant kidney mice = test: Mouse remnant kidney model of hypertensive nephropathy (Example 2, 9 weeks); type: in vivo; conditions: all groups
Experimental: A mouse remnant kidney model (“remnant”) involving surgical reduction of ¾ of the entire renal mass is used as a preclinical model of hypertensive renal disease (Kidney Int. 64(1):350-5, (2003)).
Surgical reduction of renal mass (N=40 mice) or sham surgery is performed by Taconic, Inc. in male 129S6 mice at 8-9 weeks of age (obtained by Taconic, Inc.). Randomization into 5 equivalent groups of 8 remnant kidney mice is done at 15 weeks post-surgery by urine albumin to creatinine ratio (ACR) and body weight.
Study duration is 9 weeks. After 2 weeks of dosing, a necropsy is done on all groups except the 144 nmol/kg group of Example 2 which continues to be monitored for ACR for another 7 weeks to determine the durability of the effects of the compound of Example 2 on urine ACR. […]
Body weight is determined at baseline and at termination with a Metler Toledo Balance. […] Serum is analyzed for BUN and creatinine on a Roche Hitachi Modular Analytics P analyzer with reagents from Roche. […]
Urine albumin and creatinine are determined on a Roche Hitachi Modular Analytics P analyzer. Urine creatinine is determined with the Creatinine Plus reagent by Roche. […]
All data are analyzed with JMP v.8.0 software (SAS Institute). […] All other data were evaluated by ANOVA with log transformed data if the data were skewed and a Students unpaired t test. […]

[2] = mouse, in vivo, sc, 386 nmol/kg
human CRHR2b = target: T1, human CRHR2b (Homo sapiens, UniProt Q13324); test: human CRHR2b cell-based cAMP assay; conditions: cAMP assay, CHO cells transfected with human CRHR2b; mean ± SEM of runs; read-out: hCRHR2b Average EC50
T1 construct: expressed in transfected cells; host or cells: Chinese Hamster Ovary (CHO) cells, transient transfection
T1 sequence (Q13324 1-438 isoform Q13324-2): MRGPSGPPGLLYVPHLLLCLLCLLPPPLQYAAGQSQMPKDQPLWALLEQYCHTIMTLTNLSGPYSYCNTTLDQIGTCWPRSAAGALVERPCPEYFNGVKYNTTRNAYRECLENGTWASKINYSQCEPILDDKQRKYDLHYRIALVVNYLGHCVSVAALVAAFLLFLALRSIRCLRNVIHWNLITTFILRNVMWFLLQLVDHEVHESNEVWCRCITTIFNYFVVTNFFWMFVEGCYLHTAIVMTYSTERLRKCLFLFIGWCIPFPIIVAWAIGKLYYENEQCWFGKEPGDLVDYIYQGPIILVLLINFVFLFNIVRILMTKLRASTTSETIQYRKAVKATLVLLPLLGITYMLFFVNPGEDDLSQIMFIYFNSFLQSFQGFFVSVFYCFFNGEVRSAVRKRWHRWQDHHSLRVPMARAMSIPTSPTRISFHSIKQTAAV
In short: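 ED50 values are means ± SEM over several runs, curve-fitted from cAMP in pmol, calibrated against unlabeled-cAMP standards. Detection was HTRF competition, ratio 665/620 nm, after 30 min agonist exposure at 37 °C.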

in vivo = conditions: male, Sprague Dawley, rat, sc; for half-life: T1/2
Experimental: as §1, §2

Which results are given for `CC[C@H](C)[C@H](NC(C)=O)C(=O)N[C@H](C(=O)N[C@@H](CC(C)C)C(=O)N[C@@H](CO)C(=O)N[C@@H](CC(C)C)C(=O)N[C@@H](CC(=O)O)C(=O)N[C@H](C(=O)N1CCC[C@H]1C(=O)N[C@H](C(=O)NCC(=O)N[C@@H](CC(C)C)C(=O)N[C@@H](CC(C)C)C(=O)N[C@@H](CCC(N)=O)C(=O)N[C@H](C(=O)N[C@@H](CC(C)C)C(=O)N[C@@H](CC(C)C)C(=O)N[C@@H](CCC(=O)O)C(=O)N[C@@H](CCC(N)=O)C(=O)N[C@@H](CCC(=O)O)C(=O)N[C@@H](CCCCN)C(=O)N[C@@H](CCC(N)=O)C(=O)N[C@@H](CCC(=O)O)C(=O)N[C@@H](CCCCN)C(=O)N[C@@H](CCC(=O)O)C(=O)N[C@@H](CCCCN)C(=O)N[C@@H](CCC(N)=O)C(=O)N[C@@H](CCC(N)=O)C(=O)N[C@@H](C)C(=O)N[C@@H](CCCCNC(=O)COCCOCCNC(=O)COCCOCCNC(=O)CC[C@H](NC(=O)CC[C@H](NC(=O)CCCCCCCCCCCCCCCCCCC(=O)O)C(=O)O)C(=O)O)C(=O)N[C@H](C(=O)N[C@@H](CC(N)=O)C(=O)N[C@@H](C)C(=O)N[C@@H](CCC(N)=O)C(=O)N[C@H](C(=O)N[C@@H](CC(C)C)C(=O)N[C@@H](C)C(=O)N[C@@H](CCC(N)=O)C(=O)N[C@H](C(N)=O)C(C)C)[C@@H](C)CC)[C@@H](C)O)[C@@H](C)CC)[C@@H](C)CC)C(C)C)C(C)C` [Example 2] (Ac-IVLSLDVPIGLLQILLEQEKQEKEKQQAK([AEEA-AEEA-γGlu-γGlu-C20 diacid])TNAQILAQV-NH2)?
CL/F ([1]; CL/F): 0.0783 mL/min/kg; half-life ([1]; T1/2): 34 h; deaths during the study (remnant kidney mice): no deaths; CL/F [2]: 0.138 mL/min/kg; half-life [2]: 20 h; EC50 (human CRHR2b): 1.2 ± 0.52 nM

For `CC[C@H](C)[C@H](NC)C(=O)N[C@H](C(=O)N[C@@H](CC(C)C)C(=O)N[C@@H](CO)C(=O)N[C@@H](CC(C)C)C(=O)N[C@@H](CC(=O)O)C(=O)N[C@H](C(=O)N1CCC[C@H]1C(=O)N[C@H](C(=O)NCC(=O)N[C@@H](CC(C)C)C(=O)N[C@@H](CC(C)C)C(=O)N[C@@H](CCC(N)=O)C(=O)N[C@H](C(=O)N[C@@H](CC(C)C)C(=O)N[C@@H](CC(C)C)C(=O)N[C@@H](CCC(=O)O)C(=O)N[C@@H](CCC(N)=O)C(=O)N[C@@H](CCC(=O)O)C(=O)N[C@@H](CCCCN)C(=O)N[C@@H](CCC(N)=O)C(=O)N[C@@H](CCC(=O)O)C(=O)N[C@@H](CCCCN)C(=O)N[C@@H](CCC(=O)O)C(=O)N[C@@H](CCCCN)C(=O)N[C@@H](CCC(N)=O)C(=O)N[C@@H](CCC(N)=O)C(=O)N[C@@H](C)C(=O)N[C@@H](CCCCNC(=O)COCCOCCNC(=O)COCCOCCNC(=O)CC[C@H](NC(=O)CC[C@H](NC(=O)CCCCCCCCCCCCCCCCCCC(=O)O)C(=O)O)C(=O)O)C(=O)N[C@H](C(=O)N[C@@H](CC(N)=O)C(=O)N[C@@H](C)C(=O)N[C@@H](CCC(N)=O)C(=O)N[C@H](C(=O)N[C@@H](CC(C)C)C(=O)N[C@@H](C)C(=O)N[C@@H](CCC(N)=O)C(=O)N[C@H](C(N)=O)C(C)C)[C@@H](C)CC)[C@@H](C)O)[C@@H](C)CC)[C@@H](C)CC)C(C)C)C(C)C` [Example 4] (H-[NMeI]VLSLDVPIGLLQILLEQEKQEKEKQQAK([AEEA-AEEA-γGlu-γGlu-C20 diacid])TNAQILAQV-NH2), which CL/F (in vivo; 50 nmol/kg) is on record?
Its CL/F is 0.107 mL/min/kg.

What about the half-life (in vivo; 50 nmol/kg) of the same compound?
Its half-life is 19 h.

And the CL/F (in vivo; 150 nmol/kg)?
Its CL/F is 0.113 mL/min/kg.

And the half-life (in vivo; 150 nmol/kg)?
Its half-life is 21 h.

What about the EC50 (human CRHR2b) of the same compound?
The EC50 was 1.85 ± 0.51 nM.

For `CC[C@H](C)[C@H](NC)C(=O)N[C@H](C(=O)N[C@@H](CC(C)C)C(=O)N[C@@H](CO)C(=O)N[C@@H](CC(C)C)C(=O)N[C@@H](CC(=O)O)C(=O)N[C@H](C(=O)N1CCC[C@H]1C(=O)N[C@H](C(=O)NCC(=O)N[C@@H](CC(C)C)C(=O)N[C@@H](CC(C)C)C(=O)N[C@@H](CCC(N)=O)C(=O)N[C@H](C(=O)N[C@@H](CC(C)C)C(=O)N[C@@H](CC(C)C)C(=O)N[C@@H](CCC(=O)O)C(=O)N[C@@H](CCC(N)=O)C(=O)N[C@@H](CCC(=O)O)C(=O)N[C@@H](CCCCN)C(=O)N[C@@H](CCC(N)=O)C(=O)N[C@@H](CCC(=O)O)C(=O)N[C@@H](CCCCN)C(=O)N[C@@H](CCC(=O)O)C(=O)N[C@@H](CCCCN)C(=O)N[C@@H](CCC(N)=O)C(=O)N[C@@H](CCC(N)=O)C(=O)N[C@@H](C)C(=O)N[C@@H](CCCCNC(=O)COCCOCCNC(=O)COCCOCCNC(=O)CC[C@H](NC(=O)CC[C@H](NC(=O)CCCCCCCCCCCCCCCCC(=O)O)C(=O)O)C(=O)O)C(=O)N[C@H](C(=O)N[C@@H](CC(N)=O)C(=O)N[C@@H](C)C(=O)N[C@@H](CCC(N)=O)C(=O)N[C@H](C(=O)N[C@@H](CC(C)C)C(=O)N[C@@H](C)C(=O)N[C@@H](CCC(N)=O)C(=O)N[C@H](C(N)=O)C(C)C)[C@@H](C)CC)[C@@H](C)O)[C@@H](C)CC)[C@@H](C)CC)C(C)C)C(C)C` [Example 3] (H-[NMeI]VLSLDVPIGLLQILLEQEKQEKEKQQAK([AEEA-AEEA-γGlu-γGlu-C18 diacid])TNAQILAQV-NH2), which EC50 (human CRHR2b) is on record?
Its EC50 is 2 ± 1.11 nM.
